Results from patent publication US9067914B1, “Tropomyosin-related kinase (TRK) inhibitors” (Genzyme Corporation, priority 2013, dated 2015).
Structures can show the parent of a compound that is named as a salt.

Key:
[1] = target: TrkA (Homo sapiens (Human), UniProt P04629); assay: TrkA activity, off-chip mobility shift assay (LabChip 3000); type: biochemical; settings: 55 μM ATP (ATP Km); n/d = none detected
Description: (§1) Reagents and consumables were purchased from Sigma Aldrich, Carna Biosciences, or Caliper Life Sciences. All assay reaction conditions for IC50 determinations were within the linear range with respect to time and enzyme concentration. […] The LabChip 3000 separates and measures the fluorescent signal of fluorescein labeled peptide substrate and fluorescein labeled peptide product present in each well. Results are expressed as percent conversion by measuring peak height for both the substrate and product and dividing the product peak height by the sum of peak heights for both substrate and product.

[2] = target: TrkB (Homo sapiens (Human), UniProt Q16620); assay: TrkB activity, off-chip mobility shift assay (LabChip 3000); type: biochemical; settings: 70 μM ATP (ATP Km); n/d = none detected
Description: as §1

Chain of TrkA (P04629 33-796): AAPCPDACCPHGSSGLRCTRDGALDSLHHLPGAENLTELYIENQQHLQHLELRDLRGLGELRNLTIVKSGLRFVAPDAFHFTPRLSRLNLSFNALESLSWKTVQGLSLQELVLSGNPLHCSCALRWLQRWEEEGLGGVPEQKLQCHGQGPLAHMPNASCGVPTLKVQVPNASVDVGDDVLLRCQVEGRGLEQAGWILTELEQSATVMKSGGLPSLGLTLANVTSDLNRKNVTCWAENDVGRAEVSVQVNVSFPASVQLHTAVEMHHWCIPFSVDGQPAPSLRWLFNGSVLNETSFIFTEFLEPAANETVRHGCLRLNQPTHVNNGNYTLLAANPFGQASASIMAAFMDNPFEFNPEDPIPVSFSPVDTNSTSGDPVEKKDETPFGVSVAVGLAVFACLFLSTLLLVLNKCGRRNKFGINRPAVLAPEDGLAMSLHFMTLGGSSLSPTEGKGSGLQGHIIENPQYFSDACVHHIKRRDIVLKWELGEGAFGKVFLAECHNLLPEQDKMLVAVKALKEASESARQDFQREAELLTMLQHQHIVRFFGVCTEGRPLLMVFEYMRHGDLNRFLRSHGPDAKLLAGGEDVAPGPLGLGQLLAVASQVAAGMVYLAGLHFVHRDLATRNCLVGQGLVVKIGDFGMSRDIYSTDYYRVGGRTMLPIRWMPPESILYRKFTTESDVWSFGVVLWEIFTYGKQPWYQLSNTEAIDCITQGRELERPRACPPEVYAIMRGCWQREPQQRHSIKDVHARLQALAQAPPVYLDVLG
Chain of TrkB (Q16620 32-822): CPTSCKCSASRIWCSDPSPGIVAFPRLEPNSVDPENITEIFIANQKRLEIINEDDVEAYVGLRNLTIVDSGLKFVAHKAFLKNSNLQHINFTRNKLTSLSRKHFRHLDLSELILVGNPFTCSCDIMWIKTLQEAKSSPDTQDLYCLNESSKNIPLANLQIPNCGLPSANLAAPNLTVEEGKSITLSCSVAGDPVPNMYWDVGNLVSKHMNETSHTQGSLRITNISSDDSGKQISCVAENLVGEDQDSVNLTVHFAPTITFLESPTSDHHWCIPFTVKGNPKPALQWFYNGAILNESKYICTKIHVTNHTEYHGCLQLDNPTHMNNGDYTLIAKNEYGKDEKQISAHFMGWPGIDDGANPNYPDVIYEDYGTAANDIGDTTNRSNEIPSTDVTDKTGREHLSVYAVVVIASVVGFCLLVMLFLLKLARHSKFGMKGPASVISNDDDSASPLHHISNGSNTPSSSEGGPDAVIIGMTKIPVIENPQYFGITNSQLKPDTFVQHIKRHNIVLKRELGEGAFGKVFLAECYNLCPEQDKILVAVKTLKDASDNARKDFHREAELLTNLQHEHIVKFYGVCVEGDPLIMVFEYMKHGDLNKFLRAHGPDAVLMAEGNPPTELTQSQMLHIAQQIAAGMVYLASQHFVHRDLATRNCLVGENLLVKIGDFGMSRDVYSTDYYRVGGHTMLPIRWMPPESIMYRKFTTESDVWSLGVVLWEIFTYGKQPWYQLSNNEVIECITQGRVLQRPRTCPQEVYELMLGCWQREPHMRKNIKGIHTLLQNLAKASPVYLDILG

Row | IC50 [1] [nM] | IC50 [2] [nM] | Compound
1 | 8 | 13 | COc1ccc(COc2ccc(Cn3cnc4cc(N5CCC[C@H]5C(=O)O)cnc43)cc2OC)cn1 [Ex. 3-18-7, (S)-1-(3-(3-Methoxy-4-((6-methoxypyridin-3-yl)methoxy)benzyl)-3H-imidazo[4,5-b]pyridin-6-yl)pyrrolidine-2-carboxylic acid]
2 | 26 | 24 | COc1ccc(COc2ccc(Cn3cnc4cc(-c5noc(C6CCNCC6)n5)cnc43)cc2OC)cn1 [Ex. 3-21, 3-(3-(3-Methoxy-4-((6-methoxypyridin-3-yl)methoxy)benzyl)-3H-imidazo[4,5-b]pyridin-6-yl)-5-(piperidin-4-yl)-1,2,4-oxadiazole]
3 | 590 | 315 | COc1ccc(COc2ccc(Cn3c(N)nc4cc(N5CCN(C)CC5)ccc43)cc2OC)cn1 [Ex. 3-26, 1-(3-methoxy-4-((6-methoxypyridin-3-yl)methoxy)benzyl)-5-(4-methylpiperazin-1-yl)-1H-benzo[d]imidazol-2-amine]
4 | 652 | 574 | COc1ccc(COc2ccc(Cn3cnc4cc(N5CCC(C(C)(C)N)CC5)ccc43)cc2OC)cn1 [Ex. 3-10, 2-(1-(1-(3-Methoxy-4-((6-methoxypyridin-3-yl)methoxy)benzyl)-1H-benzo[d]imidazol-5-yl)piperidin-4-yl)propan-2-amine]
5 | 32 | 26 | CCC(Oc1ccc(Cn2c(N)nc3cc(-c4cnn(C)c4)cnc32)cc1OC)c1ccc(OC)nc1 (centres unmarked) [3-34, 3-(3-methoxy-4-(1-(6-methoxypyridin-3-yl)propoxy)benzyl)-6-(1-methyl-1H-pyrazol-4-yl)-3H-imidazo[4,5-b]pyridin-2-amine]
6 | 852 | 305 | COc1ccc(COc2cc(F)c(Cn3cnc4cc(N5CCN(C)CC5)ccc43)cc2OC)cn1 [Ex. 3-27, 1-(2-fluoro-5-methoxy-4-((6-methoxypyridin-3-yl)methoxy)benzyl)-5-(4-methylpiperazin-1-yl)-1H-benzo[d]imidazole]
7 | 102 | 14 | COc1cc(C(C)n2cnc3cc(-c4cnn(C)c4)ccc32)ccc1OCc1ccc(C(F)(F)F)nc1 (centres unmarked) [Ex. 3-48-1, 1-(1-(3-methoxy-4-((6-(trifluoromethyl)pyridin-3-yl)methoxy)phenyl)ethyl)-5-(1-methyl-1H-pyrazol-4-yl)-1H-benzo[d]imidazole]
8 | 113 | 52 | COc1ccc(COc2ccc(Cn3cnc4cc(N5CCN(C6CC6)CC5)cnc43)cc2OC)cn1 [Ex. 3-18-3, 6-(4-Cyclopropylpiperazin-1-yl)-3-(3-methoxy-4-((6-methoxypyridin-3-yl)methoxy)benzyl)-3H-imidazo[4,5-b]pyridine]
9 | 8980 | 4370 | COc1ccc(COc2ccc(Cn3c(N)nc4cc(N5CCN(C)CC5=O)ccc43)cc2OC)cn1 [Ex. 3-14, 1-(2-Amino-1-(3-methoxy-4-((6-methoxypyridin-3-yl)methoxy)benzyl)-1H-benzo[d]imidazol-5-yl)-4-methylpiperazin-2-one]
10 | 135 | 120 | COc1ccc(COc2ccc(Cn3cnc4cc(N5CC6(CCNCC6)C5)ccc43)cc2OC)cn1 [Ex. 3-11, 1-(3-methoxy-4-((6-methoxypyridin-3-yl)methoxy)benzyl)-5-(2,7-diazaspiro[3.5]nonan-2-yl)-1H-benzo[d]imidazole]
11 | 58 | 51 | COc1ccc(C(Oc2ccc(Cn3c(N)nc4cc(-c5cnn(C)c5)cnc43)cc2OC)C2CC2)cn1 (centres unmarked) [Ex. 3-43, 3-(4-(cyclopropyl(6-methoxypyridin-3-yl)methoxy)-3-methoxybenzyl)-6-(1-methyl-1H-pyrazol-4-yl)-3H-imidazo[4,5-b]pyridin-2-amine]
12 | 3 | 1 | COc1ccc(COc2ccc(C(C)n3c(N)nc4cc(-c5cnn(C)c5)ccc43)cc2OC)cn1 (centres unmarked) [Ex. 3-45, 1-(1-(3-methoxy-4-((6-methoxypyridin-3-yl)methoxy)phenyl)ethyl)-5-(1-methyl-1H-pyrazol-4-yl)-1H-benzo[d]imidazol-2-amine]
13 | 25 | 21 | COc1ccc(COc2ccc(Cn3cnc4cc(N5CC6(CCNCC6)C5)cnc43)cc2OC)cn1 [Ex. 3-18-5, 3-(3-Methoxy-4-((6-methoxypyridin-3-yl)methoxy)benzyl)-6-(2,7-diazaspiro[3.5]nonan-2-yl)-3H-imidazo[4,5-b]pyridine]
14 | 1480 | 889 | COc1ccc(COc2ccc(Cn3cnc4cc(C5=CC6(C)CCCN5C6)ccc43)cc2OC)cn1 (centres unmarked) [Ex. 3-31, 1-(3-methoxy-4-((6-methoxypyridin-3-yl)methoxy)benzyl)-5-(5-methyl-1-azabicyclo[3.2.1]oct-6-en-7-yl)-1H-benzo[d]imidazole]
15 | 360 | 150 | COc1ccc(COc2ccc(Cn3cnc4cc(C5=CC6(O)CCCN5C6)cnc43)cc2OC)cn1 (centres unmarked) [Ex. 3-32, 7-(3-(3-methoxy-4-((6-methoxypyridin-3-yl)methoxy)benzyl)-3H-imidazo[4,5-b]pyridin-6-yl)-1-azabicyclo[3.2.1]oct-6-en-5-ol]
16 | 1130 | 443 | COc1ccc(COc2ccc(Cn3cnc4cc(N5CCN(C)CC5)ccc43)cc2OC)cn1 [Ex. 3-13, 1-(3-Methoxy-4-((6-methoxypyridin-3-yl)methoxy)benzyl)-5-(4-methylpiperazin-1-yl)-1H-benzo[d]imidazole]
17 | 0.2 | 0.2 | COc1cc(Cn2c(N)nc3cc(-c4cnn(C)c4)cnc32)ccc1OCc1ccc(C(F)(F)F)nc1 [Ex. 3-35-2, 3-(3-methoxy-4-((6-(trifluoromethyl)pyridin-3-yl)methoxy)benzyl)-6-(1-methyl-1H-pyrazol-4-yl)-3H-imidazo[4,5-b]pyridin-2-amine]
18 | 0.2 | 0.3 | COc1cc(Cn2c(N)nc3cc(-c4cnn(C)c4)cnc32)ccc1OCc1ccc(C(F)(F)F)cc1 [Ex. 3-35-3, 3-(3-methoxy-4-((4-(trifluoromethyl)benzyl)oxy)benzyl)-6-(1-methyl-1H-pyrazol-4-yl)-3H-imidazo[4,5-b]pyridin-2-amine]
19 | 88 | 43 | COc1ccc(COc2ccc(Cn3cnc4cc(-n5cc(C(C)(C)N)nn5)cnc43)cc2OC)cn1 [Ex. 3-24, 2-(1-(3-(3-Methoxy-4-((6-methoxypyridin-3-yl)methoxy)benzyl)-3H-imidazo[4,5-b]pyridin-6-yl)-1H-1,2,3-triazol-4-yl)propan-2-amine]
20 | 6 | 4 | COc1ccc(COc2ccc(Cn3c(N)nc4cc(-c5ccccc5)cnc43)cc2OC)cn1 [Ex. 3-36, 3-(3-methoxy-4-((6-methoxypyridin-3-yl)methoxy)benzyl)-6-phenyl-3H-imidazo[4,5-b]pyridin-2-amine]
21 | 51 | 16 | COc1ccc(COc2ccc(Cn3c(N)nc4cc(-c5cncnc5)cnc43)cc2OC)cn1 [Ex. 3-37-3, 3-(3-methoxy-4-((6-methoxypyridin-3-yl)methoxy)benzyl)-6-(pyrimidin-5-yl)-3H-imidazo[4,5-b]pyridin-2-amine]
22 | 7 | 6 | COc1ccc(COc2ccc(Cn3c(N)nc4cc(-c5ccc(P(C)(C)=O)nc5)ccc43)cc2OC)cc1 [Ex. 3-3, (5-(2-Amino-1-(3-methoxy-4-((4-methoxybenzyl)oxy)benzyl)-1H-benzo[d]imidazol-5-yl)pyridin-2-yl)dimethylphosphine oxide]
23 | 0.5 | 0.2 | COc1ccc(COc2ccc(Cn3c(N)nc4cc(-c5ccc(P(C)(C)=O)nc5)cnc43)cc2OC)cc1 [Ex. 3-16, (5-(2-Amino-3-(3-methoxy-4-((4-methoxybenzyl)oxy)benzyl)-3H-imidazo[4,5-b]pyridin-6-yl)pyridin-2-yl)dimethylphosphine oxide]
24 | 35 | 13 | COc1ccc(C(C)Oc2ccc(Cn3cnc4cc(-c5cnn(C)c5)cnc43)cc2OC)cn1 (centres unmarked) [Ex. 3-57, 3-(3-methoxy-4-(1-(6-methoxypyridin-3-yl)ethoxy)benzyl)-6-(1-methyl-1H-pyrazol-4-yl)-3H-imidazo[4,5-b]pyridine formate]
25 | 4 | 2 | COc1ccc(COc2ccc(Cn3c(N)nc4cc(-c5ccccn5)cnc43)cc2OC)cn1 [Ex. 3-38, 3-(3-methoxy-4-((6-methoxypyridin-3-yl)methoxy)benzyl)-6-(pyridin-2-yl)-3H-imidazo[4,5-b]pyridin-2-amine]
26 | 51 | 57 | COc1ccc(COc2ccc(Cn3cnc4cc(-c5nnc(C6CCNCC6)o5)cnc43)cc2OC)cn1 [Ex. 3-23, 2-(3-(3-Methoxy-4-((6-methoxypyridin-3-yl)methoxy)benzyl)-3H-imidazo[4,5-b]pyridin-6-yl)-5-(piperidin-4-yl)-1,3,4-oxadiazole]
27 | 14 | 13 | COc1ccc(COc2ccc(Cn3c(N)nc4cc(-c5c(C)nn(C)c5C)cnc43)cc2OC)cn1 [Ex. 3-37-4, 3-(3-methoxy-4-((6-methoxypyridin-3-yl)methoxy)benzyl)-6-(1,3,5-trimethyl-1H-pyrazol-4-yl)-3H-imidazo[4,5-b]pyridin-2-amine]
28 | 0.3 | – | COc1cc([C@H](C)n2c(N)nc3cc(-c4cnn(C)c4)cnc32)ccc1OCc1ccc(C(F)(F)F)cc1 (single isomer, unassigned) [Ex. 3-49-6a, 3-(1-(3-methoxy-4-((4-(trifluoromethyl)benzyl)oxy)phenyl)ethyl)-6-(1-methyl-1H-pyrazol-4-yl)-3H-imidazo[4,5-b]pyridin-2-amine]
29 | 5 | – | COc1cc([C@@H](C)n2c(N)nc3cc(-c4cnn(C)c4)cnc32)ccc1OCc1ccc(C(F)(F)F)cc1 (single isomer, unassigned) [Ex. 3-49-6b, 3-(1-(3-methoxy-4-((4-(trifluoromethyl)benzyl)oxy)phenyl)ethyl)-6-(1-methyl-1H-pyrazol-4-yl)-3H-imidazo[4,5-b]pyridin-2-amine]
